# Measured values taken from US10220019B2, “Method for treating pulmonary fibrosis comprising application of dimethylamino micheliolide” (Tianjin International Joint Academy of Biotechnology & …, priority 2016, dated 2019).
# Tested on: mouse pulmonary fibrosis model
# Experiment: Mouse pulmonary fibrosis model and pharmacodynamics test of ACT001
# Assay type: in vivo, Kunming mice (male)
# Experimental: a) Preparation of ACT001 solution: 1 g ACT001 powder was weighed and dissolved in 100 mL 0.9% normal saline solution to prepare 10 mg/mL solution. When it was fully dissolved, it was filter sterilized with 0.22 μm filter for use, and was freshly prepared each time before use. The preparation and the use of the solution should be performed in a sterile biosafety cabinet.
# b) Preparation of ethyl viologen hydrate solution: 2 g ethyl viologen hydrate was weighed and dissolved in 100 mL 0.9% normal saline to prepare 20 mg/mL solution. When it was fully dissolved, it was filter sterilized with 0.22 μm filter for use, and was freshly prepared each time before each use. The preparation and the use of the solution should be performed in a sterile biosafety cabinet.
# Randomly divide 36 mice into three groups: normal group, control group (pulmonary fibrosis model group), ACT001 group (administering ACT001 after modeling), and 12 animals per group. Conduct a one-off intragastric administration of 0.15 mL of 0.9% normal saline to each animal in the normal group; and conduct a one-off intragastric administration of 0.15 mL of the ethyl viologen hydrate solution to each animal in the control group and ACT001 group.
# 3 weeks after modeling, drug treatment was given to the mice. Conduct an intragastric administration of 0.1 mL of 0.9% normal saline to each animal in the normal and control groups, and conduct an intragastric administration of 0.1 mL ACT001 aqueous solution to each animal in the ACT001 group. Once every 2 days.
# At the third week after modeling, the second week after drug administration, and the third week after drug administration, four mice were each taken from the normal group, control group and ACT001 group, sacrificed by breaking their necks, their lung tissues were sampled, after fixing the tissues with 10% formalin for two days, the fixing solution on the surface of the lung tissues was washed away with running water, the lung tissues were then dehydrated with a pathological tissue dehydration machine, the tissues were embed in paraffin, the embedded tissues were sectioned, H.E. staining was conducted and slides were covered before observing the changes of the lung tissues under microscope.
# [1] = after 3 weeks of drug administration
# [2] = second week after ACT001 administration, intragastric 0.1 mL once every 2 days
compound,measurement,setting,value
"CC1=C2CC[C@@](C)(O)C2[C@H]2OC(=O)[C@@H](CN(C)C)[C@@H]2CC1 (stereo partly shown) [ACT001, dimethylamino micheliolide]",difference in pulmonary coefficient versus the normal group,[1],no significant difference
same,pulmonary coefficient lower relative to the control group,[1],0.47%
same,average lung weight,"after 3 weeks of drug administration, normal group 0.4012 g, control group 0.5983 g",0.4034 g
same,average of pulmonary coefficient (lung wet mass/body weight*100%),"after 3 weeks of drug administration, normal group 0.81%, control group 1.32%",0.85%
same,average body weight,"after 3 weeks of drug administration, normal group 49.2352 g, control group 45.4575 g",47.576 g
same,blood supply in the lung tissue (lung tissue morphology under stereoscopic microscope),"second week after ACT001 administration, intragastric 0.1 mL of 10 mg/mL solution once every 2 days, started 3 weeks after modeling, compared with control group",significant improvement of blood supply in the lung tissue
same,"alveolar structures (lung tissue section, H.E. staining)",[2],restored to normal
same,"deposition in the lung interstitials (lung tissue section, H.E. staining)",[2],significantly reduced
same,"fibrosis degree of the lung (lung tissue section, H.E. staining)","second week after ACT001 administration, intragastric 0.1 mL once every 2 days, compared with control group",significant improvement for the fibrosis degree of the lung
same,level of pulmonary fibrosis (lung tissue morphology and tissue section),"third week after ACT001 administration, compared with control group",significantly reduced
